The values that follow come from patent US10889591B2, “PDE9 inhibitor and use thereof” (Nanjing TransThera Biosciences Co. Ltd., priority 2017, dated 2021).

Assay [1] has as its target PDE8A1 Enzyme (Homo sapiens (Human), UniProt O60658). The assay is described as follows: PDE enzymology evaluation, PDE8A1. The class given is biochemical. As to the method:
(§1) Experimental Example 5: PDE Enzymology Evaluation Method
(§2) Test substance: Compounds of the invention, prepared by the corresponding examples of the invention
(§3) 1. Experimental materials and instruments
PDE8A1 Enzyme (BPS, Cat. No. 60080)
(§4) 2. Experimental procedure
(§5) Preparation of the compounds: the compounds were prepared into 10 mM compound stock solution in DMSO for long-term storage. The obtained compound stock solution was diluted in 100 times with DMSO to obtain 100 μM compound working mother solution, and then the compound working mother solution was diluted in 3 times with DMSO to obtain 10 concentration gradients of diluted compound mother liquor (100×).
(§6) Incubation with the compounds: A very small amount of liquid pipetting system Echo was used to pipette the diluted compound mother liquor into a 384-well plate. 200 nL diluted compound mother liquor and 10 μL PDE1A1, PDE3A, PDE5A1 and PDE8A1 enzyme solution were added to each compound well. […] In the maximum reading hole (Max), the compound was replaced by solvent. In the minimum reading hole (Min), the compound and enzyme solution were replaced by solvent.
(§7) Detection: Fluorescence readings (F) at 480 nm/535 nm were detected using a microplate reader.
(§8) Calculation: The inhibition rate was calculated as follows, and IC50 was fitted using GraphPad Prism 5.0: […]

Assay [2] deals with PDE1A1 Enzyme (Homo sapiens (Human), UniProt P54750). The assay is described as follows: PDE enzymology evaluation, PDE1A1. In kind it is biochemical. As to the method: as §1, §2, §3
Chain of PDE1A1 Enzyme (P54750 whole entry, change not shown): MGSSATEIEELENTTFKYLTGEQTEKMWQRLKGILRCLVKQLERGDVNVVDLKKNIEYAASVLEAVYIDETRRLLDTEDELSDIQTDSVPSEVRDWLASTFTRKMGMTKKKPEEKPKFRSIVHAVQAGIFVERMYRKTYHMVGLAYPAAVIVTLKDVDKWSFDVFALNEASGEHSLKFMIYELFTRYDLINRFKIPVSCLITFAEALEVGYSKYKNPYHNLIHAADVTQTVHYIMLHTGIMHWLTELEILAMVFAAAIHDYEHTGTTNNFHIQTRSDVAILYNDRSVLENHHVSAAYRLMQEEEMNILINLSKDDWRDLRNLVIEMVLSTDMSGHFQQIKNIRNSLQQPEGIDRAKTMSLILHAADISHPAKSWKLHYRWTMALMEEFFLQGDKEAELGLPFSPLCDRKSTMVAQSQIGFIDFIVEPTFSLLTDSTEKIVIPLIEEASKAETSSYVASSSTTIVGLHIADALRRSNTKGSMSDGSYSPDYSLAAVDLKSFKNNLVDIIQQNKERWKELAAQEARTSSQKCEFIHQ
PDE1A1 Enzyme (BPS, Cat. No. 60010)
as §4, §5, §6, §7, §8

Assay [3] concerns the target PDE3A Enzyme (Homo sapiens (Human), UniProt Q14432). The assay is described as follows: PDE enzymology evaluation, PDE3A. The class given is biochemical. How it is done:
as §1, §2, §3
PDE3A Enzyme (BPS, Cat. No. 60030)
as §4, §5, §6, §7, §8

The target of assay [4] is PDE5A1 Enzyme (Homo sapiens (Human), UniProt O76074). As to the kind of experiment: PDE enzymology evaluation, PDE5A1. In kind it is biochemical. How it is done:
as §1, §2, §3
PDE5A1 Enzyme (BPS, Cat. No. 60050)
as §4, §5, §6, §7, §8

Assay [5] deals with Human PDE9 (Homo sapiens (Human), UniProt O76083). Conditions: background statement; read-out: binding constant (Km) of PDE9; cited from earlier work.
Chain of Human PDE9 (O76083 whole entry): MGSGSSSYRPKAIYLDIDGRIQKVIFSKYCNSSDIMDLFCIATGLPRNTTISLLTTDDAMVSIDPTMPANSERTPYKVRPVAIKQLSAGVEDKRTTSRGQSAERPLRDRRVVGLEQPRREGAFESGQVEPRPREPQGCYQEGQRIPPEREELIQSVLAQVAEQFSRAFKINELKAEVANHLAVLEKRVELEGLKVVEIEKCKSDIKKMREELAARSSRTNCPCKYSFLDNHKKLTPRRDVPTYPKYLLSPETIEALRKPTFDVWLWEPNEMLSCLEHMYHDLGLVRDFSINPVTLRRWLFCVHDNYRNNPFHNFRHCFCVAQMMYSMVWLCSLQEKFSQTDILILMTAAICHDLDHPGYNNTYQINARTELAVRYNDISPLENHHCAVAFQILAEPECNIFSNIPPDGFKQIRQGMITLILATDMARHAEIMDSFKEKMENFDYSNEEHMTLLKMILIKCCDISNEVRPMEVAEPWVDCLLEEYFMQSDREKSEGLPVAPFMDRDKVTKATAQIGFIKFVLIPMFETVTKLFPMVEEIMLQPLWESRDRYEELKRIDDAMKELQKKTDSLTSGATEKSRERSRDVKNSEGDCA

Each structure is given as a SMILES string.

Chain of PDE8A1 Enzyme (O60658 whole entry): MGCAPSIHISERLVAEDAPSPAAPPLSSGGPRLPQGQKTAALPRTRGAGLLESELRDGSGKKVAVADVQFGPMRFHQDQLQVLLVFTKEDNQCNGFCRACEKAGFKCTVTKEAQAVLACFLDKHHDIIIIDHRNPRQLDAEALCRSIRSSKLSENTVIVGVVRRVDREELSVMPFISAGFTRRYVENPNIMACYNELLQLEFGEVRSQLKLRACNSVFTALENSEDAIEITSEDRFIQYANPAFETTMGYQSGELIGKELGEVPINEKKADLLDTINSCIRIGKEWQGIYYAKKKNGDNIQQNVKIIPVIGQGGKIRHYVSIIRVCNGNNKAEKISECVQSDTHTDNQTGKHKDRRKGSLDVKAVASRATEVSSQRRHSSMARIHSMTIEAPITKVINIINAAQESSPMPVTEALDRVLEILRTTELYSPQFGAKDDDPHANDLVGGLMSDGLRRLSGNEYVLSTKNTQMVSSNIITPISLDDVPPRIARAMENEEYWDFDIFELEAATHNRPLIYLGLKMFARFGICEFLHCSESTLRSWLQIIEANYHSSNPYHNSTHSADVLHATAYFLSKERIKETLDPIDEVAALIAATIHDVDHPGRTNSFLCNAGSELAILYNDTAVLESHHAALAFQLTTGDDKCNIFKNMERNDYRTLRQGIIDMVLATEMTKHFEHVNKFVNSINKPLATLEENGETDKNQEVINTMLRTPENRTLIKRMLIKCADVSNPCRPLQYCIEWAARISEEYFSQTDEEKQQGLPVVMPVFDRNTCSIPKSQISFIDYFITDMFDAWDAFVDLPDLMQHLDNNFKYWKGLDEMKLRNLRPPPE
Chain of PDE3A Enzyme (Q14432 whole entry): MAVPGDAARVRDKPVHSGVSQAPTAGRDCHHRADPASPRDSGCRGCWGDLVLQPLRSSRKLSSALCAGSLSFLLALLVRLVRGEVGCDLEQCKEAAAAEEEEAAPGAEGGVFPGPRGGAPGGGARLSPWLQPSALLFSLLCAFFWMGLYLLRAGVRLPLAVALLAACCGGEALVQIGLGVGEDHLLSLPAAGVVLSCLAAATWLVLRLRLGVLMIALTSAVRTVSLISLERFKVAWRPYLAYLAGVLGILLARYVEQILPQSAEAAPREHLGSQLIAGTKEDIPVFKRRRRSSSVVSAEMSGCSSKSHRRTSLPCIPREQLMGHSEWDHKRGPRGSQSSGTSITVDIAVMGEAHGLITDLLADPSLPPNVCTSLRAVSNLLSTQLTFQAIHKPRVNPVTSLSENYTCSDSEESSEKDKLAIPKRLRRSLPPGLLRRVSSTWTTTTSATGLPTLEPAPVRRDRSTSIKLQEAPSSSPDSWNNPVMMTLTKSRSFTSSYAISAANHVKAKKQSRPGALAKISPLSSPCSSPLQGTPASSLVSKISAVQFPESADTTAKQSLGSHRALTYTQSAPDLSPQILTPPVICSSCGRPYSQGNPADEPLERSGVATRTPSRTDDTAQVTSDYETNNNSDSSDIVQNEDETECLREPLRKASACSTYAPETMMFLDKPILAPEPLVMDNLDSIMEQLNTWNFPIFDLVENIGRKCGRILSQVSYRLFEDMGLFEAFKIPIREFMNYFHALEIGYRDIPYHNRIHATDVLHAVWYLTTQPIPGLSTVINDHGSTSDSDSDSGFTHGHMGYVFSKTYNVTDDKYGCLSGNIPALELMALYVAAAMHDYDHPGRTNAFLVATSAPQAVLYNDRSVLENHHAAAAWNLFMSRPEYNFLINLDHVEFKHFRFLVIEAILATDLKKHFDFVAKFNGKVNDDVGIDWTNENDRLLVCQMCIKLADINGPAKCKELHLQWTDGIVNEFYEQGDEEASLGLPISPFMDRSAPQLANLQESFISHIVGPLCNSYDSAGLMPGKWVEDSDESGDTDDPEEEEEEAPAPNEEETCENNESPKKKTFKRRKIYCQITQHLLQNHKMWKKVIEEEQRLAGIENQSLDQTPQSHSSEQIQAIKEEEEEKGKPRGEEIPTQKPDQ

Turning to `N#Cc1c(N2CCC3(CC2)COC3)c2ccncc2[nH]c1=O` [Compound 24, 2-oxo-4-(2-oxa-7-azaspiro[3.5]nonane-7-yl)-1,2-dihydro-1,7-naphthyridin-3-carbonitrile], the IC50 in assay [1] is above 10000 nM; in assay [2] it was 4920 nM; in assay [3] it was above 10000 nM; in assay [4], above 10000 nM.
With `Nc1ncnc2c1ncn2[C@@H]1O[C@@H]2COP(=O)(O)O[C@H]2[C@H]1O` [cAMP, cyclic adenosine monophosphate], the Km in assay [5] is 230 µM.
Turning to `Nc1nc2c(ncn2[C@@H]2O[C@@H]3COP(=O)(O)O[C@H]3[C@H]2O)c(=O)[nH]1` [cGMP, cyclic guanosine monophosphate], the Km in assay [5] is 0.17 µM.

For orientation: IC50 means the concentration at which inhibition is half-maximal. A word on the Km: it is the concentration of substrate that gives half-maximal velocity.
